Tests used:
lung fibroblasts = experiment: Type I collagen expression of lung fibroblasts at therapeutic (nM) concentrations, western blot; format: cell-based, human
Procedure: In lung fibrosis the process of excessive collagen accumulation is similar to the liver, but the cells responsible for collagen synthesis are lung fibroblasts. Therefore, I tested the potency of 60D17 at therapeutic concentrations in lung fibroblasts before 60D17 was tested at higher concentrations in these cells.
Lane 4 represents untreated control cells.

[1] = system: primary human lung fibroblasts; experiment: Inhibition of type I collagen secretion by primary human lung fibroblasts, western blot of cellular medium; format: cell-based; details: two days; for secretion of type I collagen polypeptides COLα1(I) and COLα2(I) into the cellular medium: western blot
Procedure: Several chemical compounds were identified in this screen and tested for their ability to inhibit collagen production by primary human lung fibroblasts in culture. Lung fibroblasts are responsible for development of lung fibrosis. The compounds were added in a single dose of 100 μM to the lung fibroblasts, except compound 60D17, which was added at 10 μM. Two days after the addition of the compounds, the secretion of type I collagen into the cellular medium was analyzed by western blot. Both polypeptides which form type I collagen, COLα1(I) and COLα2(I), were analyzed.
Here, COLα1 represents the α1 polypeptide of type I collagen, COLα2 represents the α2 polypeptide of type I collagen, and FIB represents fibronectin, which was the control.

collagen synthesis = details: cited from earlier work
rat liver slices = experiment: Collagen expression in precision cut rat liver slices, western blot; format: cell-based; details: 1 μM, 4 days, four slices
Procedure: In these experiments 60D17 was added to four different slices (lanes 2-5) […] at 1 μM concentration. The expression of both collagen α1(I) polypeptide, resolved here as procollagen (PRO-COLL1A1), and processed mature collagen (COLL 1A1) were measured by western blot. Lanes 1 and 6 were untreated control. Actin (ACT) was used as the loading control.
Precision cut liver slices were prepared from rat liver with a thickness of 350 μm and diameter of 8 mm. These slices were cultured in vitro for several days. Cutting the liver represents an injury thereto. In response to this injury, the slices initiate profibrotic changes. The response is similar to the fibrotic response of the intact organ, because the slices retain all different cell types and proper architecture of the organ. Thus, they mimic fibrosis initiation of the whole liver. Accordingly, this is a useful model to test the efficacy of 60D17 in blocking the profibrotic reaction.

[2] = Initial animal studies, tolerability in rats; format: in vivo
[3] = system: hepatic stellate cells (HSCs); experiment: Inhibition of collagen α1(I) polypeptide synthesis in cultured hepatic stellate cells (HSCs), western blot; format: cell-based, rat; details: added at day 3, measured at day 7
Source text: HSCs are liver cells responsible for collagen synthesis in hepatic fibrosis. […] In fibrotic livers, HSCs increase type I collagen expression 50-100 fold. Similar changes can be reproduced when HSCs are isolated from rat livers and cultured in vitro.
Three days after isolation and culturing, the HSCs still retain their quiescent phenotype and show little collagen expression. At day 5 after isolation the first significant increase in collagen expression becomes evident. After 7-8 days of culturing type I collagen expression increases 50-100 fold and attains its maximal level.
I used this model to test the efficacy of 60D17 in inhibiting collagen expression, because it is relevant to liver fibrosis. 60D17 was added at 100 nM and 250 nM concentrations to HSCs at day 3 in the culture. The cells were cultured until day 7 and the level of collagen α1(I) polypeptide was measured by western blot.
Lane 1 contained untreated cells. Lane 2 contained HSCs treated with 250 nM of 60D17. Lane 3 contained HSCs treated with 100 nM of 60D17. The panel on the left represents the cellular levels of collagen α1(I) polypeptide measured by western blot. Actin (ACT) was used as the loading control. The right panel represents the collagen α1(I) polypeptide level in the cellular medium.

Row | SMILES | antifibrotic activity (collagen production by human lung fibroblasts, FIG. 1) ([1]; single dose of 100 μM) | secretion of type I collagen polypeptides COLα1(I) and COLα2(I) into the cellular medium ([1]; single dose of 100 μM) | also measured
1 | Cn1c(C(=O)Nc2ccccc2)cc2c(=O)n3ccccc3nc21 [60D17-G] | – | – | synthesis of type I collagen (lung fibroblasts; nM concentrations, cells not given): interfered with the synthesis of type I collagen at nM concentrations
2 | CCSc1nnc2c(n1)OC(c1ccncc1)=Nc1ccccc1-2 [67C17] | posses antifibrotic activity | reduced α2 polypeptide more than α1 polypeptide | –
3 | O=S(=O)(c1cccc2ccccc12)N1CCCNCC1 [ML-7] | – | – | collagen synthesis (collagen synthesis): interferes with collagen synthesis
4 | Cc1cc(C)nc(-n2nc(-c3ccc4ccccc4c3)cc2O)n1 [45F6] | posses antifibrotic activity | dramatically reduced excretion of both collagen polypeptides | –
5 | CCN1CCCC1CNC(=O)c1ccc(S(=O)(=O)N2CCOCC2)cc1 (stereo not drawn) [57N21] | posses antifibrotic activity | reduced production of α1(I) polypeptide more than that of α2 polypeptide | –
6 | Cc1cccn2c(=O)c3cc(C(=O)N4CCN(c5ccccc5)CC4)n(C)c3nc12 [13B8] | posses antifibrotic activity | reduced production of α1(I) polypeptide more than that of α2 polypeptide | –
7 | CN(C)c1cccc(-c2nn3c(-c4ccccn4)nnc3s2)c1 [60M4] | posses antifibrotic activity | reduced α2 polypeptide more than α1 polypeptide | –
8 | COC(=O)CNC(=O)c1cc2c(=O)n3cccc(C)c3nc2n1C [60J13] | posses antifibrotic activity | dramatically reduced excretion of both collagen polypeptides | –
9 | COC(=O)c1ccc2c3c([nH]c2c1)CCCC3 [13F20] | posses antifibrotic activity | dramatically reduced excretion of both collagen polypeptides | –
10 | O=c1c2oc3cccc4c3n(c=2c(=O)c2ccccc12)CCC4 [11M14] | posses antifibrotic activity | reduced production of α1(I) polypeptide more than that of α2 polypeptide | –
11 | NCc1ccc(N2CCOCC2)cc1 [1E10] | posses antifibrotic activity | dramatically reduced excretion of both collagen polypeptides | –
12 | CC(CCO)Nc1nc2c(c(=O)n(C)c(=O)n2C)n1Cc1ccccc1F (stereo not drawn) [65N3] | posses antifibrotic activity | dramatically reduced excretion of both collagen polypeptides | –
13 | Cc1cccn2c(=O)c3cc(C(=O)Nc4cccnc4)n(C)c3nc12 [60D17] | – | – | expression of collagen α1(I) polypeptide in rat liver slices (rat liver slices): significantly inhibited expression of collagen α1(I) polypeptide; tolerability in rats [2]: well tolerated; collagen α1(I) polypeptide expression in HSCs ([3]; 100 nM): significantly inhibited collagen production; collagen α1(I) polypeptide expression in HSCs ([3]; 250 nM): almost completely blocked the increase in collagen expression; antifibrotic activity (collagen production by human lung fibroblasts, FIG. 1) ([1]; single dose of 10 μM): posses antifibrotic activity; secretion of type I collagen polypeptides COLα1(I) and COLα2(I) into the cellular medium ([1]; single dose of 10 μM): dramatically reduced excretion of both collagen polypeptides; type I collagen expression (lung fibroblasts; 50 nM): substantially ineffective; synthesis of collagen α1(I) polypeptide (lung fibroblasts; 100 nM): smaller effect; synthesis of collagen α2(I) polypeptide (lung fibroblasts; 100 nM): dramatically inhibited synthesis of collagen α2(I) polypeptide; production of both polypeptides comprising type I collagen (lung fibroblasts; 500 nM, 18 h): almost completely inhibited
14 | COc1ccc(N2CCOCC2)c(NC(=O)C(C)(C)C)c1 [45I22] | posses antifibrotic activity | dramatically reduced excretion of both collagen polypeptides | –
15 | Cc1cc(C)nc(-n2[nH]c3nccc(-c4ccc5ccccc5c4)c3c2=O)n1 [49L20] | posses antifibrotic activity | reduced production of α1(I) polypeptide more than that of α2 polypeptide | –
